Measured values published in patent US12599560B2, “Lipids and lipid nanoparticle formulations” (Longuide Biopharma Corporation, priority 2023, dated 2026).

Tests used:
mice = test: In vivo delivery of FLuc-mRNA lipid nanoparticle preparations in mice (IVIS imaging); parameters: In vivo IVIS / In vivo IVIS (liver) / In vivo IVIS (spleen): unit not given here; settings: Table 2; for In vivo IVIS: whole body scan; for in vivo delivery efficiency as compared to the benchmark compound SM102: certain formulations
Outline: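 FLuc-mRNA LNPs given intramuscularly into thigh rectus femoris or intravenously via tail vein, about 75 μL per mouse, 3 mice. D-Luciferin (200 μL, 15 mg/mL) injected i.p. 10–15 min before IVIS imaging at set times after dosing.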

Delta-S protein = test: In vivo immunization with Delta Spike mRNA LNP, serum ELISA for specific antibody; parameters: species or system mice; settings: serum after second administration; IM
Description: Lipid nanoparticles encapsulating the nucleic acid drugs were prepared according to step 2. The mRNA was replaced with Delta Spike full length mRNA (Shanghai Zhaowei Science and Technology Development Co., Ltd.) and then administered to the mice at a dose of 5 μg per mouse, and on the 14th day after the first immunization, the whole blood of the mice was collected by canthus sampling, and the drug administration was repeated for the second immunization. On the 14th day after the second immunization, the whole blood was collected from mice by canthus sampling. The whole blood was centrifuged at 5000 rcf for 5 mn, and the supernatant was centrifuged at 10000 rcf for 5 min to obtain the serum, which was aliquated into serial tubes and stored in the refrigerator at −20° C.
• 9.2.1 Coating: Add 100 μL of 0.2 μg/100 μL Delta-S protein (Novoprotein Scientific Inc.) dilution solution to each well, and leave it in the refrigerator at 4° C. overnight. • 9.2.2 Washing: Add 200 μL of PBST (PBS buffer solution containing 0.05% Tween-20 at pH 7.4) to each well and wash three times. • 9.2.3 Blocking: Add 200 μL of 5% (w/v) BSA-PBS solution (BSA bovine serum albumin, Bioss Biotechnology Co., Ltd.) to each well, and shake for 2 h at 50 rcf at room temperature using a shaker. • 9.2.4 Washing: Add 200 μL of PBST to each well to wash once. • 9.2.5 Adding samples: Add 100 μL of serum diluted 200 times with PBS (0.5 μL of serum) to each well (for the ELISA titer assay, serum diluted 200 times, 800 times, 3200 times, 12800 times, 51200 times, 204800 times), and shake at room temperature for 2 h at 50 rcf using a shaker. • 9.2.6 Washing: Add 200 μL of PBST into each well for three times. • 9.2.7 Adding detection antibody: Add 100 μL of HRP-labeled goat anti-mouse IgG detection antibody (0.1 μL of antibody master batch) (Sangon Biotech (Shanghai) Co., Ltd.) diluted 1000-fold into each well, and shake at 50 rcf for 1 h at room temperature using a shaker. • 9.2.8 Washing: Add 200 μL of PBST to each well and wash three times. • 9.2.9 Adding TMB (Beijing Solarbio Science & Technology Co., Ltd.): Add 50 μL of TMB mixture with the volume ratio of liquid A:liquid B of 1:1 to each well, and react for 5 mn (ELISA of blood sample I), 7 min 58 sec (ELISA of blood sample II), and react for about 5 min (ELISA titer of blood sample II). • 9.2.10 Adding phosphate (Aladdin Reagent (Shanghai) Co., Ltd.): add 50 μL of 1 mol/L phosphate per well to terminate the reaction. • 9.2.11 Detection: Use multi-function plate reader for detection. 9.3. Neutralization Antibody Levels Detected by Pseudovirus Neutralization Assay • 9.3.1 Cell seeding: 293T-ACE2 cells (Fubio (Suzhou) Biomedical Technology Co., Ltd.) were inoculated with 1×10^5 cells in each well of a 48-well plate at a concentration of 1×10^5 cells in 300 μL of DMEM medium (containing 10% heat-inactivated FBS without bispecific antibody), the 48-well plate was labeled with information such as “number, cell type, number of generations, medium type, date and name”, and then the cells were cultured in a cell culture incubator at 37° C. with 5% CO2 for 18 hours. • 9.3.2 Before the pseudovirus transfection operation, prepare an ice box, re-dissolve the serum to be used on ice, thaw on ice the virus from the −25° C. refrigerator. After thawing, the serum and pseudovirus were flicked homogenously and centrifuged with a palm centrifuge. • 9.3.3 Examine the neutralization antibody with serum diluted in different ratios: use complete culture medium to dilute the pseudovirus (Fubio (Suzhou) Biomedical Technology Co., Ltd.) and mouse serum respectively, mix them well, and then dilute them 40-fold, 100-fold, 250-fold and 625-fold according to the final concentration of the cells of incubation. […]

[1] = Particle size and PDI by dynamic light scattering; type: physicochemical; settings: Table 2; for Particle size (nm): LNP formulation with mRNA; for PDI: polydispersity value
Outline: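 Lipid nanoparticle solution (about 0.04 mg/mL mRNA) diluted in ultrapure water and particle size measured by dynamic light scattering on a Malvern instrument. Sample then further diluted with water for potential measurement.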

[2] = IV, molar ratio DMG-PEG2000:DSPC:Chol:Lipid and N/P
[3] = molar ratio 1.50:4.00:59.50:35.00, N/P 65
[4] = molar ratio 1.77:14.07:49.16:35.00, N/P 54
[5] = molar ratio 1.77:14.07:59.16:25.00, N/P 52

Row | Structure (SMILES) | In vivo IVIS (mice; [2]) | OD 450 nm-630 nm (Delta-S protein) | Particle size (nm) [1] [nm] | PDI [1] | In vivo IVIS (mice; IM) | In vivo IVIS (liver) (mice; IV) | In vivo IVIS (spleen) (mice; IV) | in vivo delivery efficiency as compared to the benchmark compound SM102 (mice) | Particle size (nm) [1, 3] [nm] | Particle size (nm) [1, 4] [nm] | Particle size (nm) [1, 5] [nm] | PDI [1, 3] | PDI [1, 4] | PDI [1, 5]
1 | CCCCCCCCCCCOC(=O)CCCCCN(CCO)CCCCCCCC(=O)OC(CCCCCCCC)CCCCCCCC [SM-102, reference compound] | 1.40 × 10^9 | 1.64 | 81.71 ± 0.49 | 0.11 ± 0.01 | – | – | – | – | – | – | – | – | – | –
2 | CCCCCCC(CCCCCC)C(=O)OCCCCCCOC(=O)C(O)CN1CCN(CCN(CC(O)C(=O)OCCCCCCOC(=O)C(CCCCCC)CCCCCC)CC(O)C(=O)OCCCCCCOC(=O)C(CCCCCC)CCCCCC)CC1 (centres unmarked) [Compound L0187] | 1.11 × 10^8 | 1.70 | 80.11 ± 0.17 | 0.12 ± 0.01 | 9.72 × 10^7 | 2.46 × 10^7 | 2.00 × 10^7 | superior in vivo delivery efficiency | – | – | – | – | – | –
3 | CCCCCCC(CCCCCC)C(=O)OCCCCCCOC(=O)C(O)CN(CCN1CCN(CCN(CC(O)C(=O)OCCCCCCOC(=O)C(CCCCCC)CCCCCC)CC(O)C(=O)OCCCCCCOC(=O)C(CCCCCC)CCCCCC)CC1)CCN(CC(O)C(=O)OCCCCCCOC(=O)C(CCCCCC)CCCCCC)CC(O)C(=O)OCCCCCCOC(=O)C(CCCCCC)CCCCCC (centres unmarked) [Compound L0203] | 3.89 × 10^8 | 1.72 | 126.73 ± 1.50 | 0.06 ± 0.01 | 8.01 × 10^7 | – | – | superior in vivo delivery efficiency | – | – | – | – | – | –
4 | CCCCCCOCOCCCCCCOC(=O)C(O)CN(CCCN1CCN(CCCN(CC(O)C(=O)OCCCCCCOCOCCCCCC)CC(O)C(=O)OCCCCCCOCOCCCCCC)CC1)CC(O)C(=O)OCCCCCCOCOCCCCCC (centres unmarked) [Compound L0192] | 5.56 × 10^10 | 1.68 | – | – | – | – | – | superior in vivo delivery efficiency | 112.83 ± 0.31 | 96.59 ± 0.78 | 113.33 ± 1.07 | 0.15 ± 0.01 | 0.08 ± 0.02 | 0.11 ± 0.02
5 | CCCCCCC(CCCCCC)C(=O)OCCCCOC(=O)C(O)CN1CCN(CCN(CC(O)C(=O)OCCCCOC(=O)C(CCCCCC)CCCCCC)CC(O)C(=O)OCCCCOC(=O)C(CCCCCC)CCCCCC)CC1 (centres unmarked) [Compound L0186] | 2.77 × 10^8 | 1.70 | 89.99 ± 0.58 | 0.12 ± 0.00 | 1.58 × 10^8 | 5.61 × 10^7 | 2.65 × 10^7 | superior in vivo delivery efficiency | – | – | – | – | – | –
